# Assay results published in patent US20250195521A1 (Revolution Medicines, Inc., priority 2020, published 2025).
# Key:
# Format in all cases: biochemical
# KRAS G12S = KRAS G12S (Homo sapiens (Human), UniProt P01116+P62937, G12S); assay: Ras-Raf disruption/FRET/MOA assay, KRAS G12S; conditions: read-out: KRAS G12S FRET IC50
# Source text: (§1) Disruption of B-Raf Ras-Binding Domain (BRAF^RBD) Interaction with K-Ras by Compounds of the Invention (Also Called a FRET Assay or an MOA Assay)
# (§2) Note—The following protocol describes a procedure for monitoring disruption of K-Ras G12C (GMP-PNP) binding to BRAF^RBD by a compound of the invention. This protocol may also be executed substituting other Ras proteins or nucleotides, such as K-Ras G12D and K-Ras G13D.
# (§3) The purpose of this biochemical assay was to measure the ability of test compounds to facilitate ternary complex formation between a nucleotide-loaded K-Ras isoform and Cyclophilin A; the resulting ternary complex disrupts binding to a BRAF^RBD construct, inhibiting K-Ras signaling through a RAF effector. Data is reported as IC50 values.
# (§4) In assay buffer containing 25 mM HEPES pH 7.3, 0.002% Tween20, 0.1% BSA, 100 mM NaCl and 5 mM MgCl2, tagless Cyclophilin A, His6-K-Ras-GMPPNP, and GST-BRAF^RBD were combined in a 384-well assay plate at final concentrations of 25 μM, 12.5 nM, and 50 nM, respectively. Compound was present in plate wells as a 10-point 3-fold dilution series starting at a final concentration of 30 μM. After incubation at 25° C. for 3 hours, a mixture of anti-His Eu—W1024 and anti-GST allophycocyanin was then added to assay sample wells at final concentrations of 10 nM and 50 nM, respectively, and the reaction incubated for an additional 1.5 hours. […] Compounds that facilitate disruption of a K-Ras: RAF complex were identified as those eliciting a decrease in the TR-FRET ratio relative to DMSO control wells.
# KRAS G12D = KRAS G12D (Homo sapiens (Human), UniProt P01116+P62937, G12D); assay: Ras-Raf disruption/FRET/MOA assay, KRAS G12D; conditions: read-out: KRAS G12D FRET IC50
# Source text: as §1, §2, §3, §4
# KRAS G12C = KRAS G12C (Homo sapiens (Human), UniProt P01116+P62937, G12C); assay: Ras-Raf disruption/FRET/MOA assay, KRAS G12C; conditions: read-out: KRAS G12C FRET data IC50
# Source text: as §1, §2, §3, §4
# KRAS WT = KRAS WT (Homo sapiens (Human), UniProt P01116+P62937); assay: Ras-Raf disruption/FRET/MOA assay, KRAS WT; conditions: read-out: KRAS WT FRET IC50
# Source text: as §1, §2, §3, §4
# KRAS G13D = KRAS G13D (Homo sapiens (Human), UniProt P01116+P62937, G13D); assay: Ras-Raf disruption/FRET/MOA assay, KRAS G13D; conditions: read-out: KRAS G13D FRET IC50
# Source text: as §1, §2, §3, §4
# NRAS G12C = NRAS G12C (Homo sapiens (Human), UniProt P01111+P62937, G12C); assay: Ras-Raf disruption/FRET/MOA assay, NRAS G12C; conditions: read-out: NRAS G12C FRET data IC50
# Source text: as §1, §2, §3, §4
# KRAS G13C = KRAS G13C (Homo sapiens (Human), UniProt P01116+P62937, G13C); assay: Ras-Raf disruption/FRET/MOA assay, KRAS G13C; conditions: read-out: KRAS G13C FRET IC50
# Source text: as §1, §2, §3, §4
# KRAS G12V = KRAS G12V (Homo sapiens (Human), UniProt P01116+P62937, G12V); assay: Ras-Raf disruption/FRET/MOA assay, KRAS G12V; conditions: read-out: KRAS G12V FRET IC50
# Source text: as §1, §2, §3, §4
# KRAS G12S, sequence (P01116 other isoform, or with tags, fused parts or gaps G12S): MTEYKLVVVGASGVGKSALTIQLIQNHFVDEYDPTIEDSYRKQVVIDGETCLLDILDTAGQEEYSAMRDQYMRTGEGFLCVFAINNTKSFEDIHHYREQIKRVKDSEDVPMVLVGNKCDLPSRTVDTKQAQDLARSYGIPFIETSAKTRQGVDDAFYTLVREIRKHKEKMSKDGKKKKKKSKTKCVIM
# KRAS G12S, sequence (P62937 whole entry, the tested form may be a part): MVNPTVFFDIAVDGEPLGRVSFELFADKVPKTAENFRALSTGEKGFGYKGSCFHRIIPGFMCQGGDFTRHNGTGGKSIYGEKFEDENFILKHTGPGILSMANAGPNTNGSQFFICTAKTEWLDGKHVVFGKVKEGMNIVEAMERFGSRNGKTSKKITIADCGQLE
# NRAS G12C, sequence (P01111 whole entry G12C): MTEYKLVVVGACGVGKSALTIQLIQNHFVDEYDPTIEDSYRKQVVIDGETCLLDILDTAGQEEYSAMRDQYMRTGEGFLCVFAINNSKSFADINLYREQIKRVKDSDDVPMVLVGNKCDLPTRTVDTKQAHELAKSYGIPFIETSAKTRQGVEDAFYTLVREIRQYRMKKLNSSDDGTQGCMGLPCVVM
# NRAS G12C, sequence (P62937 whole entry): as the sequence (P62937 whole entry, the tested form may be a part) above
# KRAS G13D, sequence (P01116 other isoform, or with tags, fused parts or gaps G13D): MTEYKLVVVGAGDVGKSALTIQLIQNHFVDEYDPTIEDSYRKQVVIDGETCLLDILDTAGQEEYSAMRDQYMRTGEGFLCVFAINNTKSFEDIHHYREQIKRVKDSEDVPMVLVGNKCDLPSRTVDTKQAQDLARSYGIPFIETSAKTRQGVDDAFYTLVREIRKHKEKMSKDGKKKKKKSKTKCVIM
# KRAS G13D, sequence (P62937 whole entry): as the sequence (P62937 whole entry, the tested form may be a part) above
# KRAS G13C, sequence (P01116 other isoform, or with tags, fused parts or gaps G13C): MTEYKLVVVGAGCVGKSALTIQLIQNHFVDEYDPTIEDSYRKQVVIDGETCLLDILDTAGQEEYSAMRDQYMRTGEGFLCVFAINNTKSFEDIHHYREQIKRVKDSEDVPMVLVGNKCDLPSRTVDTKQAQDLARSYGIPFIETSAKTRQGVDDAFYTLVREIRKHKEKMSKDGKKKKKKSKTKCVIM
# KRAS G13C, sequence (P62937 whole entry): as the sequence (P62937 whole entry, the tested form may be a part) above
# KRAS G12D, sequence (P01116 other isoform, or with tags, fused parts or gaps G12D): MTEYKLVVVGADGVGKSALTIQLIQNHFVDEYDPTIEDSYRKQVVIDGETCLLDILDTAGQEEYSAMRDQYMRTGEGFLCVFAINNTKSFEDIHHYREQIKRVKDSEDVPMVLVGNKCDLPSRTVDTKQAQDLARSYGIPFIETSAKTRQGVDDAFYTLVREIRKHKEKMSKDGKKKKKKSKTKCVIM
# KRAS G12D, sequence (P62937 whole entry): as the sequence (P62937 whole entry, the tested form may be a part) above
# KRAS G12V, sequence (P01116 other isoform, or with tags, fused parts or gaps G12V): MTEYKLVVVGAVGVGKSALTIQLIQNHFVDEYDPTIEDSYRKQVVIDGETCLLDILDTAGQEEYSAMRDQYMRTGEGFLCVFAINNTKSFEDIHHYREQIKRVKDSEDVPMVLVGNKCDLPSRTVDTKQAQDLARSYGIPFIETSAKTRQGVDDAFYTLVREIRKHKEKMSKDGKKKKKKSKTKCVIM
# KRAS G12V, sequence (P62937 whole entry): as the sequence (P62937 whole entry, the tested form may be a part) above
# KRAS G12C, sequence (P01116-2 other isoform, or with tags, fused parts or gaps G12C): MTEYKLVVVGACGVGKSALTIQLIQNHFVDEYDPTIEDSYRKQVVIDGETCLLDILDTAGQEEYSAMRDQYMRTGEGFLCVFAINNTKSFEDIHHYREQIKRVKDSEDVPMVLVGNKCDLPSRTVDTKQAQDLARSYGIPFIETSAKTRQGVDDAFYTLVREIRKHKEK
# KRAS G12C, sequence (P62937 whole entry): as the sequence (P62937 whole entry, the tested form may be a part) above
# KRAS WT, sequence (P01116 other isoform, or with tags, fused parts or gaps): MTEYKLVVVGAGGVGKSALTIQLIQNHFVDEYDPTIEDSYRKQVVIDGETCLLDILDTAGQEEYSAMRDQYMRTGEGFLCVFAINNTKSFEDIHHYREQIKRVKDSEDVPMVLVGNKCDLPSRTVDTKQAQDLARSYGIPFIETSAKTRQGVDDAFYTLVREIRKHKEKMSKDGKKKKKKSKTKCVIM
# KRAS WT, sequence (P62937 whole entry): as the sequence (P62937 whole entry, the tested form may be a part) above
Structure (SMILES),IC50 (KRAS G12S) [µM],IC50 (KRAS G12D) [µM],IC50 (KRAS G12C) [µM],IC50 (KRAS WT) [µM],IC50 (KRAS G13D) [µM],IC50 (NRAS G12C) [µM],IC50 (KRAS G13C) [µM],IC50 (KRAS G12V) [µM]
"CCn1c(-c2cnccc2COC)c2c3cc(ccc31)-c1cc(O)cc(c1)C[C@H](NC(=O)[C@H](C(C)C)N(C)C(=O)[C@H]1CCN(C(=O)[C@H]3CN3)C1)C(=O)N1CCC[C@H](N1)C(=O)OCC(C)(C)C2 [Example 1, (3S)-1-((R)-aziridine-2-carbonyl)-N-((2S)-1-(((6^3S,4S)-1^1-ethyl-25-hydroxy-1^2-(4-(methoxymethyl)pyridin-3-yl)-10,10-dimethyl-5,7-dioxo-6^1,6^2,6^3,6^4,6^5,6^6-hexahydro-1^1H-8-oxa-1 (5,3)-indola-6 (1,3)-pyridazina-2 (1,3)-benzenacycloundecaphane-4-yl)amino)-3-methyl-1-oxobutan-2-yl)-N-methylpyrrolidine-3-carboxamide]",0.01 to 0.1,0.1 to 1,< 0.01,0.1 to 1,0.1 to 1,< 0.01,0.1 to 1,0.01 to 0.1
CCn1c(-c2cnccc2COC)c2c3cc(ccc31)-c1cc(O)cc(c1)C[C@H](NC(=O)[C@H](C(C)C)N(C)C(=O)[C@H]1CCN(C(=O)[C@@H]3CN3)C1)C(=O)N1CCC[C@H](N1)C(=O)OCC(C)(C)C2 [Example 2],0.1 to 1,0.1 to 1,0.01 to 0.1,0.1 to 1,0.1 to 1,0.01 to 0.1,0.1 to 1,0.1 to 1
CCn1c(-c2cnccc2COC)c2c3cc(ccc31)-c1cc(O)cc(c1)C[C@H](NC(=O)[C@H](C(C)C)N(C)C(=O)C1CCN(C(=O)[C@H]3CN3)CC1)C(=O)N1CCC[C@H](N1)C(=O)OCC(C)(C)C2 [Example 3],0.1 to 1,1 to 10,0.01 to 0.1,0.1 to 1,0.1 to 1,0.01 to 0.1,0.01 to 0.1,0.1 to 1
CCn1c(-c2cnccc2COC)c2c3cc(ccc31)-c1cc(O)cc(c1)C[C@H](NC(=O)[C@H](C(C)C)N(C)C(=O)C1CCN(C(=O)[C@@H]3CN3)CC1)C(=O)N1CCC[C@H](N1)C(=O)OCC(C)(C)C2 [Example 4],0.1 to 1,1 to 10,0.01 to 0.1,0.1 to 1,0.1 to 1,0.1 to 1,0.01 to 0.1,0.1 to 1
CCn1c(-c2cnccc2COC)c2c3cc(ccc31)-c1cc(O)cc(c1)C[C@H](NC(=O)[C@H](C(C)C)N(C)C(=O)C1CN(C(=O)[C@H]3CN3)C1)C(=O)N1CCC[C@H](N1)C(=O)OCC(C)(C)C2 [Example 5],0.1 to 1,1 to 10,0.01 to 0.1,0.1 to 1,0.1 to 1,< 0.01,0.1 to 1,0.1 to 1
CCn1c(-c2cnccc2COC)c2c3cc(ccc31)-c1cc(O)cc(c1)C[C@H](NC(=O)[C@H](C(C)C)N(C)C(=O)C1CN(C(=O)[C@@H]3CN3)C1)C(=O)N1CCC[C@H](N1)C(=O)OCC(C)(C)C2 [Example 6],0.1 to 1,1 to 10,0.01 to 0.1,0.1 to 1,1 to 10,0.01 to 0.1,0.1 to 1,0.1 to 1
CCn1c(-c2cnccc2COC)c2c3cc(ccc31)-c1cc(O)cc(c1)C[C@H](NC(=O)[C@@H](CCNC(=O)NCCCl)C(C)C)C(=O)N1CCC[C@H](N1)C(=O)OCC(C)(C)C2 [Example 26],> 10,> 10,1 to 10,1 to 10,1 to 10,1 to 10,> 10,1 to 10
CCn1c(-c2cccnc2COC)c2c3cc(ccc31)-c1cc(O)cc(c1)C[C@H](NC(=O)[C@H](C(C)C)N(C)C(=O)CCNC1=NCCO1)C(=O)N1CCC[C@H](N1)C(=O)OCC(C)(C)C2 [Example 27],> 10,> 10,1 to 10,1 to 10,1 to 10,> 10,1 to 10,1 to 10
